# According to ChEMBL document CHEMBL1138016, “Azaadamantane benzamide 5-HT4 agonists: gastrointestinal prokinetic SC-54750” (Bioorg Med Chem Lett, 2004):
# How the values were obtained:
# [1] = target: 5-hydroxytryptamine receptor 4 (Cavia porcellus); assay: Binding affinity for 5-hydroxytryptamine 4 receptor in guinea pig was determined by guinea pig striatum binding assay
# [2] = target: 5-hydroxytryptamine receptor 4 (Rattus norvegicus) (UniProt Q62758); assay: Effective concentration required towards 5-hydroxytryptamine 4 receptor in rat tunica muscularis mucosae
# Sequence of 5-hydroxytryptamine receptor 4 (Rattus norvegicus) (Q62758 whole entry, looked up): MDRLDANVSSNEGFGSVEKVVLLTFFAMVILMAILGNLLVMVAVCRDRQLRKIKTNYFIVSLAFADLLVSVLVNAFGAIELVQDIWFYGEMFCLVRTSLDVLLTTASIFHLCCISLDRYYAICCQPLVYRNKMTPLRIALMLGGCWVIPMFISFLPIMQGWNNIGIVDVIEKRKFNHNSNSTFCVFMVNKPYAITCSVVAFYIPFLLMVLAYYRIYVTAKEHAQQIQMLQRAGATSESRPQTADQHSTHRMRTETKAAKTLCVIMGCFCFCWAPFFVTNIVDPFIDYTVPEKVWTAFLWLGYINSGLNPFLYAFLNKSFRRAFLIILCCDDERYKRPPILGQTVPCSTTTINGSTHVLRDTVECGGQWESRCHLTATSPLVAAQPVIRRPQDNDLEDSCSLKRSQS
# [3] = target: T1, Adrenergic receptor alpha-1 (Homo sapiens, UniProt P35348+P25100+P35368); assay: Concentration required for inhibition of alpha-1 adrenergic receptor using [3H]prazosin as the radioligand; format: protein assay
# T1 sequence (P35348 whole entry): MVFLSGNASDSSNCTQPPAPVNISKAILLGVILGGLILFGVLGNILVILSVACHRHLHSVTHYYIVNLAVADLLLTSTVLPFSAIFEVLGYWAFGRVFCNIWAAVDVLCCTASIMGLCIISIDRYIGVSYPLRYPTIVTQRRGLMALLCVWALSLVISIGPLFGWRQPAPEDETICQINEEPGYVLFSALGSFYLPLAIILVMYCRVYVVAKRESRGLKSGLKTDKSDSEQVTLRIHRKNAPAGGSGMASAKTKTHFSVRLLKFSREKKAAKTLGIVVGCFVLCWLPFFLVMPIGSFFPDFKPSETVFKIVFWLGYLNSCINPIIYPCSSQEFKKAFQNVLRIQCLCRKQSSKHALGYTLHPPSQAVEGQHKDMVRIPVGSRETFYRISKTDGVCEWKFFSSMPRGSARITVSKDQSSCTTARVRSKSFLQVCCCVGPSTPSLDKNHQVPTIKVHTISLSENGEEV
# T1 sequence (P25100 whole entry): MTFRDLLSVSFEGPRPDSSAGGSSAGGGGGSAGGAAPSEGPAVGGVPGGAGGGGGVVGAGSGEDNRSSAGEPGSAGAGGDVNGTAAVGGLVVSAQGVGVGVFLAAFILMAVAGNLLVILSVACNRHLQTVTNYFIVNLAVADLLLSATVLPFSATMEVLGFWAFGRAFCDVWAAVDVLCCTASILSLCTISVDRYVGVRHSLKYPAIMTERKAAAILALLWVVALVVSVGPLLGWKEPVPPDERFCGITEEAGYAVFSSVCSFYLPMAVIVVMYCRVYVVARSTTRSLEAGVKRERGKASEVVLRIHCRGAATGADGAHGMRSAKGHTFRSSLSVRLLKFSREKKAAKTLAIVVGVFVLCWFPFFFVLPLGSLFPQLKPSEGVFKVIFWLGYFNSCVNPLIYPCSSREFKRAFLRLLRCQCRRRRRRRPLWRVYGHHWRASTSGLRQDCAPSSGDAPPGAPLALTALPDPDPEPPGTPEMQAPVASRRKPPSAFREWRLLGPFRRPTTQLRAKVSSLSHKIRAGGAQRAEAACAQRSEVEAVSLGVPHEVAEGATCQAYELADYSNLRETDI
# T1 sequence (P35368 whole entry): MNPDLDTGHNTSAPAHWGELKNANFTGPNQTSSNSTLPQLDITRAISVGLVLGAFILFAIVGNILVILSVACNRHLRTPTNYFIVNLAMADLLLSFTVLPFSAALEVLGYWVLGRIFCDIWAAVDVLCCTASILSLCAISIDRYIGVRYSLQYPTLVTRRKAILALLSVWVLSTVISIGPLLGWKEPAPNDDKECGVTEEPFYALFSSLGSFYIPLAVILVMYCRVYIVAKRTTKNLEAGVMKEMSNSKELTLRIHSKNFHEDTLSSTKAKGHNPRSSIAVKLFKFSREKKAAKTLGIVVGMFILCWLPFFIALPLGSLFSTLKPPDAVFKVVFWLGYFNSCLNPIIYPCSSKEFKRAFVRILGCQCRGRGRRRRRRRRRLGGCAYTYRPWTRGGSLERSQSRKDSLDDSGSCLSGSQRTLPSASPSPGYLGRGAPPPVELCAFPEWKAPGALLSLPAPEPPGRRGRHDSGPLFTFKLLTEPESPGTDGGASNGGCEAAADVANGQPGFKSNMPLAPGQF
# [4] = Concentration required for inhibition of 5-hydroxytryptamine 3 receptor using [3H]GR-65630 as the radioligand
# [5] = Concentration required for inhibition of 5-hydroxytryptamine 1 receptor using [3H]-5-HT as the radioligand
# [6] = Concentration required for inhibition of Dopamine receptor D1 using [3H]SCH-23,390 as the radioligand
# Oryctolagus cuniculus [7] = assay: Effective dose required for restoring normal motility after i.v. administration; format: functional, Canis lupus familiaris; conditions: iv
# Canis familiaris = assay: Tested for inhibition of cisplatin-induced emesis in dog after i.g. administration; conditions: Canis lupus familiaris, po; read-out: ID50 (the source's name)
# [8] = Concentration required for inhibition of Dopamine receptor D2 using [3H]spiperone as the radioligand
# Oryctolagus cuniculus [9] = assay: Effective concentration required for restoring normal motility after i.v. administration; format: functional, organism-based, Canis lupus familiaris
Ki [1] [nM],EC50 [2] [nM],IC50 [3] [nM],IC50 [4] [nM],IC50 [5] [nM],IC50 [6] [nM],IC50 [8] [nM],Structure (SMILES),ED50 (Oryctolagus cuniculus [7]) [mg/kg],ED50 (Canis familiaris) [mg/kg],EC50 (Oryctolagus cuniculus [9]) [mg/kg]
57,262,> 10000,18,,,,COc1cc(N)c(Cl)cc1C(=O)NC1C2CC3CC1CN(C3)C2 (stereo in doubt; 9b),,,
,,> 10000,3.5,> 10000,> 10000,> 10000,COc1cc(N)c(Cl)cc1C(=O)NCC1C2CC3CC1CN(C3)C2 (stereo in doubt; 9c),0.62,0.3,0.03
> 500,538,> 10000,672,> 10000,> 10000,> 10000,COc1cc(N)c(Cl)cc1C(=O)NC1C2CC3CC1CN(C3)C2 (stereo in doubt; 9a),,,
